Series [1] concerns the target T1, P450 1B1 (Homo sapiens, UniProt Q16678).
T1 sequence (Q16678 1-543): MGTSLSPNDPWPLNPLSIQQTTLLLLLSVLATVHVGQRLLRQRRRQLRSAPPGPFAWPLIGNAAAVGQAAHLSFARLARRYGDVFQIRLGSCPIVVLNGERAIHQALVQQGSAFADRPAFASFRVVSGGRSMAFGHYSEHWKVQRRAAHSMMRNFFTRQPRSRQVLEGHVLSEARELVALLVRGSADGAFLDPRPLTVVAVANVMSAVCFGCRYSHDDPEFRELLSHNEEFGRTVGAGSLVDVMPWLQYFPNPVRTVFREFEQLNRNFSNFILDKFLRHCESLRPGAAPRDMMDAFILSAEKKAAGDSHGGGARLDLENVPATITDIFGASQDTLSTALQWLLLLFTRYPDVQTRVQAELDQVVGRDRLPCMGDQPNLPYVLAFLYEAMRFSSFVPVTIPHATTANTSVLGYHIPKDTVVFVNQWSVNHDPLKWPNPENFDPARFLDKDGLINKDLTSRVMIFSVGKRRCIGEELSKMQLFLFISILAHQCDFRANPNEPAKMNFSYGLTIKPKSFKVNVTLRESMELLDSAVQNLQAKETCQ
The experiment in a line: Quenching of P450 1B1. The series is classed as binding. Particulars: extrapolated % quenching; 1.0 μM P450 1B1.

In series [2] the target is T1, P450 1B1.
In series [3] the target is T1, P450 1B1. In words: Spectral binding titrations with purified P450 1B1. Particulars: for ΔAmax (ΔA~416-A~383) / wavelengths (peak/trough): 1 μM P450 1B1; for ΔAmax (ΔA~416-A~383): means ± S.E.; for wavelengths (peak/trough): pH 7.4.
Series [4] deals with T1, P450 1B1. The experiment in a line: Inhibition of P450 1B1-dependent 7-ethoxyresorufin O-deethylation. Particulars: for IC50: means and SE; for course of EROD Km values during the incubation: direct inhibitors.
Series [5] deals with T1, P450 1B1. In words: Quenching of PAH. Particulars: for interaction with P450 1B1 (quenching of inhibitor fluorescence): inhibitors at 10 nM.
Where [6] appears, read: inhibition of EROD activity IC50, 15 s of incubation time (direct and direct/restore inhibitors).

Results on 18 compounds are retold here after PMC2772130 (Chemical research in toxicology, 2008).

As a reminder, the Kd is the concentration at which binding is half-saturated. A high value points to weaker binding. One may read the IC50 as the midpoint of a concentration-inhibition curve.

Read-outs that look alike come from different tables or passages of the source.

Consider `C#Cc1ccc2ccc3ccccc3c2c1` [3EPh, 3-ethynylphenanthrene], for which the “PAH binding to P450 1B1 Bmax” value at P450 1B1 [1] was 108 ± 22%. Further, on P450 1B1 [2], the “ΔAmax / Ks” value is 0.024. On P450 1B1 [3], the affinity, expressed as Kd, was 3000 ± 400 nM; the “ΔAmax (ΔA~416-A~383)” value turned out to be 0.071 ± 0.004; the “wavelengths (peak/trough)” value is on record as 414/383. Further, on P450 1B1 [3] (difference spectra), the “type of spectral change with P450 1B1” value is listed as “reverse type I”. At P450 1B1 [4] (setting [6]), this compound registered an IC50 of 110 ± 16 nM.

On to `c1ccc2c(c1)c1cccc3ccc4cccc2c4c31` [B[e]P, benzo[e]pyrene], for which the “PAH binding to P450 1B1 Bmax” value on P450 1B1 [1] is reported as 100 ± 6%. On P450 1B1 [5], the “interaction with P450 1B1 (quenching of inhibitor fluorescence)” value is given as “not found”. The IC50 on P450 1B1 [4] (setting [6]) came out at 17 ± 2 nM.

As to `C#Cc1ccc(-c2ccccc2)cc1` [4Ebi, 4-ethynylbiphenyl], at P450 1B1 [3], binding was characterised by a dissociation constant (Kd) of 7600 ± 1200 nM, the “ΔAmax / Ks” value came to 0.003, the “ΔAmax (ΔA~416-A~383)” value turned out to be 0.023 ± 0.002 and the “wavelengths (peak/trough)” value is 416/383. Besides, the “course of EROD Km values during the incubation” value (shortened to “course”) on P450 1B1 [4] is “increased throughout the incubation period”. Besides, inhibition against P450 1B1 [4] (setting [6]) was half-maximal at 3300 ± 500 nM (IC50).

With `C#Cc1ccc2ccccc2c1` [2EN, 2-ethynylnaphthalene], at P450 1B1 [3], the Kd worked out at 15000 ± 8000 nM, the “ΔAmax / Ks” value turned out to be 0.003, the “ΔAmax (ΔA~416-A~383)” value was found to be 0.049 ± 0.038 and the “wavelengths (peak/trough)” value is reported as 415/383. The “course” value on P450 1B1 [4] is “increased throughout the incubation period”. This compound also yielded an IC50 against P450 1B1 [4] (setting [6]) of 190000 ± 16000 nM.

On to `CC#Cc1ccc(-c2ccccc2)cc1` [4Pbi, 4-(1-propynyl)biphenyl], for which, on P450 1B1 [3], binding was put at a Kd of 12000 ± 5000 nM, the “ΔAmax / Ks” value was determined as 0.005, the “ΔAmax (ΔA~416-A~383)” value turned out to be 0.074 ± 0.022 and the “wavelengths (peak/trough)” value is 415/386. Also, the concentration for half-maximal inhibition (IC50) against P450 1B1 [4] (inhibition of EROD activity IC50, 6 min of incubation time (mechanism-based inhibitor)) was 17000 ± 2000 nM.

As for `c1ccc2c(c1)ccc1c3ccccc3ccc21` [chrysene], on P450 1B1 [1], the “PAH binding to P450 1B1 Bmax” value is listed as 84 ± 6%. Further, the “interaction with P450 1B1 (quenching of inhibitor fluorescence)” value on P450 1B1 [5] is on record as “not found”. On P450 1B1 [4] (setting [6]), 92 ± 11 nM corresponded to half-maximal inhibition (IC50).

On P450 1B1 [4] (setting [6]), `c1ccc2c3c(ccc2c1)-c1cccc2cccc-3c12` [B[j]FA, benzo[j]fluoranthene] came in with an IC50 of 44 ± 6 nM.

Take `C#Cc1ccc2c(ccc3ccccc32)c1` [2EPh, 2-ethynylphenanthrene]: the “PAH binding to P450 1B1 Bmax” value on P450 1B1 [1] is on record as 62 ± 4%. In addition, on P450 1B1 [2], the “ΔAmax / Ks” value is on record as 0.020. At P450 1B1 [3], the Kd turned out to be 4200 ± 1300 nM, the “ΔAmax (ΔA~416-A~383)” value was found to be 0.080 ± 0.013 and the “wavelengths (peak/trough)” value was 414/383. In addition, at P450 1B1 [5], the Kd is 1.9 to 18 nM. Moreover, the “course” value at P450 1B1 [4] is “increased throughout the incubation period”. On P450 1B1 [4] (setting [6]), this compound registered an IC50 of 130 ± 21 nM.

Regarding `C#Cc1cc2ccccc2c2ccccc12` [9EPh, 9-ethynylphenanthrene], at P450 1B1 [1], the “PAH binding to P450 1B1 Bmax” value is on record as 52 ± 3%. Moreover, the “ΔAmax / Ks” value on P450 1B1 [2] was found to be 0.020. At P450 1B1 [3], the Kd is 3600 ± 1000 nM, the “ΔAmax (ΔA~416-A~383)” value was found to be 0.071 ± 0.010 and the “wavelengths (peak/trough)” value was 415/383. For the same compound, the “course” value on P450 1B1 [4] was “increased throughout the incubation period”. Further, the midpoint of inhibition against P450 1B1 [4] (setting [6]), the IC50, lay at 140 ± 18 nM.

For `Cc1cc2ccccc2c2ccc3ccccc3c12` [5MeCh, 5-methylchrysene], at P450 1B1 [1], the “PAH binding to P450 1B1 Bmax” value is given as 83 ± 5%. For the same compound, at P450 1B1 [5], the “interaction with P450 1B1 (quenching of inhibitor fluorescence)” value is recorded as “not found”. Half-maximal inhibition at P450 1B1 [4] (setting [6]) (IC50) was put at 8 ± 1 nM.

In the case of `Cc1c2ccccc2c(C)c2c1ccc1ccccc12` [DMBA, 7,12-dimethylbenz[a]anthracene], the “PAH binding to P450 1B1 Bmax” value at P450 1B1 [1] is given as 62 ± 1%. Further, the IC50 against P450 1B1 [4] (setting [6]) is 300 ± 33 nM.

`CC#Cc1cc2ccccc2c2ccccc12` [9PPh, 9-(1-propynyl)phenanthrene]: on P450 1B1 [1], the “PAH binding to P450 1B1 Bmax” value is 61 ± 3%. Besides, the “ΔAmax / Ks” value at P450 1B1 [2] came out at 0.015. For the same compound, at P450 1B1 [3], binding was put at a Kd of 3200 ± 300 nM, the “ΔAmax (ΔA~416-A~383)” value is 0.049 ± 0.002 and the “wavelengths (peak/trough)” value is given as 416/383. In addition, the “course” value on P450 1B1 [4] is “increased throughout the incubation period”. Further, the midpoint of inhibition on P450 1B1 [4] (setting [6]), the IC50, lay at 110 ± 21 nM.

Turning to `Cc1ccc2cc3c(ccc4ccccc43)c3c2c1CC3` [3MC, 3-methylcholanthrene], the “PAH binding to P450 1B1 Bmax” value at P450 1B1 [1] was 105 ± 6%. Also, the “interaction with P450 1B1 (quenching of inhibitor fluorescence)” value at P450 1B1 [5] is given as “not found”. Besides, the IC50 at P450 1B1 [4] (setting [6]) is 14 ± 2 nM.

Take `C#Cc1cc2cccc3ccc4cccc1c4c32` [4EP, 4-ethynylpyrene]: the “PAH binding to P450 1B1 Bmax” value at P450 1B1 [1] is listed as 67 ± 3%. The “ΔAmax / Ks” value on P450 1B1 [2] was determined as 0.013. Further, at P450 1B1 [3], the Kd worked out at 4000 ± 900 nM, the “ΔAmax (ΔA~416-A~383)” value is 0.052 ± 0.006 and the “wavelengths (peak/trough)” value is reported as 416/383. In addition, on P450 1B1 [5], the equilibrium dissociation constant (Kd) lay in the range of 1.9 to 18 nM. The IC50 at P450 1B1 [4] (setting [6]) was found to be 250 ± 20 nM.

Regarding `c1ccc2cc3c(ccc4ccccc43)cc2c1` [B[a]A, benz[a]anthracene], at P450 1B1 [1], the “PAH binding to P450 1B1 Bmax” value is recorded as 46 ± 1%. Further, the IC50 at P450 1B1 [4] (read-out: inhibition of EROD activity IC50, 15 s of incubation time (direct and direct/restore inhibitors)) is 9 ± 1 nM.

Take `C#Cc1cc2ccc3cccc4ccc(c1)c2c34` [2EP, 2-ethynylpyrene]: the “PAH binding to P450 1B1 Bmax” value on P450 1B1 [1] is given as 69 ± 3%. In addition, the “ΔAmax / Ks” value at P450 1B1 [2] worked out at 0.021. At P450 1B1 [3], the affinity, expressed as Kd, was 3400 ± 500 nM; the “ΔAmax (ΔA~416-A~383)” value is on record as 0.071 ± 0.005; the “wavelengths (peak/trough)” value was 416/387. The compound further came in with a Kd at P450 1B1 [5] of 1.9 to 18 nM. Moreover, the “course” value at P450 1B1 [4] is listed as “increased throughout the incubation period”. Further, at P450 1B1 [4] (setting [6]), the 50% inhibitory concentration (IC50) stood at 110 ± 20 nM.

`c1ccc2c(c1)ccc1nc3ccc4ccccc4c3cc12` [DB[a,j]Ac, dibenz[a,j]acridine] gave a Kd on P450 1B1 [5] of 14 nM. This compound showed an IC50 against P450 1B1 [4] (setting [6]) of 15 ± 2 nM.

As to `CC#Cc1ccc2c(ccc3ccccc32)c1` [2PPh, 2-(1-propynyl)phenanthrene], the “PAH binding to P450 1B1 Bmax” value on P450 1B1 [1] is listed as 77 ± 5%. Moreover, the “ΔAmax / Ks” value at P450 1B1 [2] was 0.030. Also, at P450 1B1 [3], the equilibrium dissociation constant (Kd) worked out at 2200 ± 100 nM, the “ΔAmax (ΔA~416-A~383)” value was 0.067 ± 0.001 and the “wavelengths (peak/trough)” value is reported as 415/383. In addition, at P450 1B1 [5], the Kd lay in the range of 1.9 to 18 nM. On P450 1B1 [4] (setting [6]), this compound gave a half-maximal inhibitory concentration (IC50) of 100 ± 12 nM.
